Tested on: 966289-007-R4-J1-PDC complex spheroid viability
Assay: Anticancer human tumor 966289-007-R4-J1-PDC patient-derived pancreatic adenocarcinoma cell line growth inhibition [GQUAD]
Conditions: for IC50: curve of first compound; for viability, T/C: stronger effect = lower value
Summary of the method: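 Multi-cell-type spheroids of tumor cells with HUVEC and mesenchymal stem cells, treated with drug combinations. Concentrations descend in half-log steps from near clinical Cmax, or from 10 microM where Cmax is unknown; viability read-out.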

[1] = second compound 0.0316 µM, first compound 0.0316 µM
[2] = second compound 0.0316 µM, first compound 0.1 µM
[3] = second compound 0.0316 µM, first compound 0.316 µM
[4] = second compound 0.0316 µM, first compound 1 µM
[5] = second compound 0.0316 µM, first compound 3.16 µM
[6] = second compound 0.0316 µM, first compound 10 µM
[7] = second compound 0.1 µM, first compound 0.0316 µM
[8] = second compound 0.1 µM, first compound 0.1 µM
[9] = second compound 0.1 µM, first compound 0.316 µM
[10] = second compound 0.1 µM, first compound 1 µM
[11] = second compound 0.1 µM, first compound 3.16 µM
[12] = second compound 0.1 µM, first compound 10 µM
[13] = second compound 0.316 µM, first compound 0.0316 µM
[14] = second compound 0.316 µM, first compound 0.1 µM
[15] = second compound 0.316 µM, first compound 0.316 µM
[16] = second compound 0.316 µM, first compound 1 µM
[17] = second compound 0.316 µM, first compound 3.16 µM
[18] = second compound 0.316 µM, first compound 10 µM
[19] = second compound 1 µM, first compound 0.0316 µM
[20] = second compound 1 µM, first compound 0.1 µM
[21] = second compound 1 µM, first compound 0.316 µM
[22] = second compound 1 µM, first compound 1 µM
[23] = second compound 1 µM, first compound 3.16 µM
[24] = second compound 1 µM, first compound 10 µM
[25] = second compound 3.16 µM, first compound 0.0316 µM
[26] = second compound 3.16 µM, first compound 0.1 µM
[27] = second compound 3.16 µM, first compound 0.316 µM
[28] = second compound 3.16 µM, first compound 1 µM
[29] = second compound 3.16 µM, first compound 3.16 µM
[30] = second compound 3.16 µM, first compound 10 µM
[31] = second compound 10 µM, first compound 0.0316 µM
[32] = second compound 10 µM, first compound 0.1 µM
[33] = second compound 10 µM, first compound 0.316 µM
[34] = second compound 10 µM, first compound 1 µM
[35] = second compound 10 µM, first compound 3.16 µM
[36] = second compound 10 µM, first compound 10 µM
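Note: spheroids exposed to the agents for seven days before readout.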
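Throughout, for viability, T/C: percent viability relative to DMSO vehicle control wells taken as 100%.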

C=CC(=O)N1CCN(c2nc(=O)n(-c3c(C)ccnc3C(C)C)c3nc(-c4c(O)cccc4F)c(F)cc23)C(C)C1 (stereo unspecified) + Cc1cnc(CNC(=O)c2c(=O)c3ccc(N4CCCN(C)CC4)nc3n3c2sc2ccccc23)cn1
IC50 (second compound 0.0316 µM): > 10000 nM
IC50 (second compound 0.1 µM): < 31.6 nM
IC50 (second compound 0.316 µM): < 31.6 nM
IC50 (second compound 1 µM): < 31.6 nM
IC50 (second compound 3.16 µM): < 31.6 nM
IC50 (second compound 10 µM): < 31.6 nM
viability, T/C [1]: 109%
viability, T/C [2]: 102%
viability, T/C [3]: 112%
viability, T/C [4]: 98%
viability, T/C [5]: 103%
viability, T/C [6]: 88.2%
viability, T/C [7]: 31.1%
viability, T/C [8]: 37.4%
viability, T/C [9]: 37.1%
viability, T/C [10]: 31.9%
viability, T/C [11]: 37%
viability, T/C [12]: 25.3%
viability, T/C [13]: 11.3%
viability, T/C [14]: 12.7%
viability, T/C [15]: 11.5%
viability, T/C [16]: 12.2%
viability, T/C [17]: 13.4%
viability, T/C [18]: 10.3%
viability, T/C [19]: 7.08%
viability, T/C [20]: 5.8%
viability, T/C [21]: 5.81%
viability, T/C [22]: 6.58%
viability, T/C [23]: 9.48%
viability, T/C [24]: 9.07%
viability, T/C [25]: 4.85%
viability, T/C [26]: 4.57%
viability, T/C [27]: 5.54%
viability, T/C [28]: 5.93%
viability, T/C [29]: 7.14%
viability, T/C [30]: 8.52%
viability, T/C [31]: 0.11%
viability, T/C [32]: 0.14%
viability, T/C [33]: 0.14%
viability, T/C [34]: 0.16%
viability, T/C [35]: 2.33%
viability, T/C [36]: 0.13%

O=C(NO)c1cnc(N2CCN(S(=O)(=O)c3ccc4ccccc4c3)CC2)nc1 + Cc1cnc(CNC(=O)c2c(=O)c3ccc(N4CCCN(C)CC4)nc3n3c2sc2ccccc23)cn1
IC50 (second compound 0.0316 µM): 209 nM
IC50 (second compound 0.1 µM): < 31.6 nM
IC50 (second compound 0.316 µM): < 31.6 nM
IC50 (second compound 1 µM): < 31.6 nM
IC50 (second compound 3.16 µM): < 31.6 nM
IC50 (second compound 10 µM): < 31.6 nM
viability, T/C [1]: 96.4%
viability, T/C [2]: 87.3%
viability, T/C [3]: 28.8%
viability, T/C [4]: 8.77%
viability, T/C [5]: 2.84%
viability, T/C [6]: 0.33%
viability, T/C [7]: 31.3%
viability, T/C [8]: 31.9%
viability, T/C [9]: 10.8%
viability, T/C [10]: 4.55%
viability, T/C [11]: 2.02%
viability, T/C [12]: 0.31%
viability, T/C [13]: 7.24%
viability, T/C [14]: 5.47%
viability, T/C [15]: 3.67%
viability, T/C [16]: 2.76%
viability, T/C [17]: 1.03%
viability, T/C [18]: 0.05%
viability, T/C [19]: 4.18%
viability, T/C [20]: 2.98%
viability, T/C [21]: 3.68%
viability, T/C [22]: 0.86%
viability, T/C [23]: 0.32%
viability, T/C [24]: 0.05%
viability, T/C [25]: 1.88%
viability, T/C [26]: 2.14%
viability, T/C [27]: 0.08%
viability, T/C [28]: 0.05%
viability, T/C [29]: 0.06%
viability, T/C [30]: 0.1%
viability, T/C [31]: 0.03%
viability, T/C [32]: 0.09%
viability, T/C [33]: 0.1%
viability, T/C [34]: 0.09%
viability, T/C [35]: 0.53%
viability, T/C [36]: 0.23%

COc1ccc([C@@H](O)c2cc(-c3ncnc4cc(N5CCOCC5)ccc34)c(F)cc2Cl)nn1 + Cc1cnc(CNC(=O)c2c(=O)c3ccc(N4CCCN(C)CC4)nc3n3c2sc2ccccc23)cn1
IC50 (second compound 0.0316 µM): 826 nM
IC50 (second compound 0.1 µM): < 31.6 nM
IC50 (second compound 0.316 µM): < 31.6 nM
IC50 (second compound 1 µM): < 31.6 nM
IC50 (second compound 3.16 µM): < 31.6 nM
IC50 (second compound 10 µM): < 31.6 nM
viability, T/C [1]: 119%
viability, T/C [2]: 109%
viability, T/C [3]: 107%
viability, T/C [4]: 38.6%
viability, T/C [5]: 36%
viability, T/C [6]: 26%
viability, T/C [7]: 47.7%
viability, T/C [8]: 37.2%
viability, T/C [9]: 21.7%
viability, T/C [10]: 11.2%
viability, T/C [11]: 12.2%
viability, T/C [12]: 13.2%
viability, T/C [13]: 14.1%
viability, T/C [14]: 15%
viability, T/C [15]: 10.7%
viability, T/C [16]: 9.67%
viability, T/C [17]: 12.2%
viability, T/C [18]: 10.4%
viability, T/C [19]: 7.16%
viability, T/C [20]: 7.76%
viability, T/C [21]: 6.22%
viability, T/C [22]: 5.28%
viability, T/C [23]: 7.22%
viability, T/C [24]: 6.81%
viability, T/C [25]: 5.73%
viability, T/C [26]: 5.42%
viability, T/C [27]: 4.82%
viability, T/C [28]: 4.3%
viability, T/C [29]: 6.69%
viability, T/C [30]: 6.78%
viability, T/C [31]: 0.11%
viability, T/C [32]: 0.13%
viability, T/C [33]: 0.3%
viability, T/C [34]: 0.15%
viability, T/C [35]: 0.42%
viability, T/C [36]: 0.15%
